Measured values published in patent US20250345436A1 (Hyloris Developments SA, priority 2023, published 2025).

Columns and labels:
physchem = assay type: physicochemical
Excerpt: Atomoxetine HCl (API, active pharmaceutical ingredient) has good aqueous solubility. […] Human saliva has a pH normal range of 6.2-7.6 with 6.7 being the average pH. […] In the oral cavity, the pH is maintained near neutrality (6.7-7.3) by the saliva.
It is also evident that the solubilized form of atomoxetine is going to have a direct impact on taste buds thereby causing immediate bitterness upon drinking the oral solution.

[1] = cited from earlier work

Row | Molecule | solubility (physchem; aqueous buffer, Absolute Solubility) | solubility (physchem; pH 4.5, aqueous buffer, Absolute Solubility) | solubility (physchem; pH 6.8, aqueous buffer, Absolute Solubility) | solubility (physchem; pH 6.8, aqueous buffer, solubility) | solubility (physchem; pH 7.4, aqueous buffer, Absolute Solubility) | solubility (physchem; simulated gastric fluid, Absolute Solubility) | solubility (physchem; water, Absolute Solubility) | size of self-assembled nanosized aggregates ([1]; in water above CMC) | critical micellar concentration (CMC) ([1]; in water)
1 | CNCC[C@@H](Oc1ccccc1C)c1ccccc1.Cl [Atomoxetine HCl, (-)-N-Methyl-3-phenyl-3-(o-tolyloxy)-propylamine hydrochloride] | 12.2 mg/mL | 33.9 mg/mL | 3.53 mg/mL | 2.7 to 3.5 mg/mL | 2.75 mg/mL | 13.1 mg/mL | 24.1 mg/mL | – | –
2 | D-α-Tocopherol Polyethylene Glycol Succinate [Vitamin E TPGS] | – | – | – | – | – | – | – | about 13 nm | 0.02 wt %
